The supplement of paper PMC10307832

Assays:
Assay in all cases: relative viability (nuclei count vs DMSO), 5 days (fraction); higher = more cells survive
201T = system: 201T
Method in brief: (§1)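 Dosing by pin tool came one day after lung cancer cell lines were seeded in 1536-well plates, using either one drug or a fixed anchor-drug dose plus five library-drug doses (not always all listed) in √10 steps. After 5 days, nuclei were counted on 4× images. Relative viability is treated-well nuclei count divided by vehicle-well nuclei count, and values are medians of duplicate plates.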

ABC-1 = system: ABC-1
Method in brief: as §1

BEN = system: BEN
Method in brief: as §1

CAL-12T = system: CAL-12T
Method in brief: as §1

COR-L 105 = system: COR-L 105
Method in brief: as §1

EKVX = system: EKVX
Method in brief: as §1

HARA = system: HARA
Method in brief: as §1

HCC-366 = system: HCC-366
Method in brief: as §1

LK-2 = system: LK-2
Method in brief: as §1

LOU-NH91 = system: LOU-NH91
Method in brief: as §1

NCI-H1437 = system: NCI-H1437
Method in brief: as §1

NCI-H1650 = system: NCI-H1650
Method in brief: as §1

NCI-H1666 = system: NCI-H1666
Method in brief: as §1

NCI-H2009 = system: NCI-H2009
Method in brief: as §1

NCI-H2170 = system: NCI-H2170
Method in brief: as §1

NCI-H3122 = system: NCI-H3122
Method in brief: as §1

NCI-H441 = system: NCI-H441
Method in brief: as §1

NCI-H460 = system: NCI-H460
Method in brief: as §1

NCI-H661 = system: NCI-H661
Method in brief: as §1

NCI-H727 = system: NCI-H727
Method in brief: as §1

PC-14 = system: PC-14
Method in brief: as §1

SW 900 = system: SW 900
Method in brief: as §1

## COc1nc(C)cnc1NS(=O)(=O)c1cccnc1-c1ccc(-c2nnco2)cc1 [Zibotentan] + CC(=O)c1c(C)c2cnc(Nc3ccc(N4CCNCC4)cn3)nc2n(C2CCCC2)c1=O [Palbociclib] (partner 0.5 µM)
201T; first compound 0.08 µM
  relative viability: 0.357
201T; first compound 0.253 µM
  relative viability: 0.346
201T; first compound 0.8 µM
  relative viability: 0.359
201T; first compound 2.53 µM
  relative viability: 0.363
ABC-1; first compound 0.08 µM
  relative viability: 0.603
ABC-1; first compound 0.253 µM
  relative viability: 0.475
ABC-1; first compound 0.8 µM
  relative viability: 0.664
ABC-1; first compound 2.53 µM
  relative viability: 0.676
BEN; first compound 0.08 µM
  relative viability: 0.496
BEN; first compound 0.253 µM
  relative viability: 0.493
BEN; first compound 0.8 µM
  relative viability: 0.451
BEN; first compound 2.53 µM
  relative viability: 0.44
CAL-12T; first compound 0.08 µM
  relative viability: 0.625
CAL-12T; first compound 0.253 µM
  relative viability: 0.365
CAL-12T; first compound 0.8 µM
  relative viability: 0.629
CAL-12T; first compound 2.53 µM
  relative viability: 0.508
COR-L 105; first compound 0.08 µM
  relative viability: 0.381
COR-L 105; first compound 0.253 µM
  relative viability: 0.375
COR-L 105; first compound 0.8 µM
  relative viability: 0.373
COR-L 105; first compound 2.53 µM
  relative viability: 0.45
EKVX; first compound 0.08 µM
  relative viability: 0.276
EKVX; first compound 0.253 µM
  relative viability: 0.354
EKVX; first compound 0.8 µM
  relative viability: 0.37
EKVX; first compound 2.53 µM
  relative viability: 0.5
HARA; first compound 0.08 µM
  relative viability: 0.297
HARA; first compound 0.253 µM
  relative viability: 0.226
HARA; first compound 0.8 µM
  relative viability: 0.27
HARA; first compound 2.53 µM
  relative viability: 0.258
HCC-366; first compound 0.08 µM
  relative viability: 0.387
HCC-366; first compound 0.253 µM
  relative viability: 0.285
HCC-366; first compound 0.8 µM
  relative viability: 0.383
HCC-366; first compound 2.53 µM
  relative viability: 0.4
LK-2; first compound 0.08 µM
  relative viability: 0.609
LK-2; first compound 0.253 µM
  relative viability: 0.544
LK-2; first compound 0.8 µM
  relative viability: 0.62
LK-2; first compound 2.53 µM
  relative viability: 0.609
LOU-NH91; first compound 0.08 µM
  relative viability: 0.483
LOU-NH91; first compound 0.253 µM
  relative viability: 0.544
LOU-NH91; first compound 0.8 µM
  relative viability: 0.504
LOU-NH91; first compound 2.53 µM
  relative viability: 0.476
NCI-H1437; first compound 0.08 µM
  relative viability: 0.327
NCI-H1437; first compound 0.253 µM
  relative viability: 0.296
NCI-H1437; first compound 0.8 µM
  relative viability: 0.288
NCI-H1437; first compound 2.53 µM
  relative viability: 0.304
NCI-H1650; first compound 0.08 µM
  relative viability: 0.335
NCI-H1650; first compound 0.8 µM
  relative viability: 0.357
NCI-H1650; first compound 2.53 µM
  relative viability: 0.336
NCI-H1666; first compound 0.08 µM
  relative viability: 0.682
NCI-H1666; first compound 0.253 µM
  relative viability: 0.594
NCI-H1666; first compound 0.8 µM
  relative viability: 0.694
NCI-H1666; first compound 2.53 µM
  relative viability: 0.692
NCI-H2009; first compound 0.08 µM
  relative viability: 0.188
NCI-H2009; first compound 0.253 µM
  relative viability: 0.169
NCI-H2009; first compound 0.8 µM
  relative viability: 0.205
NCI-H2009; first compound 2.53 µM
  relative viability: 0.212
NCI-H2170; first compound 0.08 µM
  relative viability: 0.389
NCI-H2170; first compound 0.253 µM
  relative viability: 0.369
NCI-H2170; first compound 0.8 µM
  relative viability: 0.403
NCI-H2170; first compound 2.53 µM
  relative viability: 0.371
NCI-H3122; first compound 0.08 µM
  relative viability: 0.186
NCI-H3122; first compound 0.253 µM
  relative viability: 0.177
NCI-H3122; first compound 0.8 µM
  relative viability: 0.154
NCI-H3122; first compound 2.53 µM
  relative viability: 0.18
NCI-H441; first compound 0.08 µM
  relative viability: 0.237
NCI-H441; first compound 0.253 µM
  relative viability: 0.197
NCI-H441; first compound 0.8 µM
  relative viability: 0.254
NCI-H441; first compound 2.53 µM
  relative viability: 0.24
NCI-H460; first compound 0.08 µM
  relative viability: 0.157
NCI-H460; first compound 0.253 µM
  relative viability: 0.0391
NCI-H460; first compound 0.8 µM
  relative viability: 0.139
NCI-H460; first compound 2.53 µM
  relative viability: 0.25
NCI-H661; first compound 0.08 µM
  relative viability: 0.421
NCI-H661; first compound 0.253 µM
  relative viability: 0.384
NCI-H661; first compound 0.8 µM
  relative viability: 0.455
NCI-H661; first compound 2.53 µM
  relative viability: 0.396
NCI-H727; first compound 0.08 µM
  relative viability: 0.623
NCI-H727; first compound 0.253 µM
  relative viability: 0.667
NCI-H727; first compound 0.8 µM
  relative viability: 0.73
NCI-H727; first compound 2.53 µM
  relative viability: 0.658
PC-14; first compound 0.08 µM
  relative viability: 0.68
PC-14; first compound 0.253 µM
  relative viability: 0.459
PC-14; first compound 0.8 µM
  relative viability: 0.607
PC-14; first compound 2.53 µM
  relative viability: 0.519
SW 900; first compound 0.08 µM
  relative viability: 0.541
SW 900; first compound 0.253 µM
  relative viability: 0.565
SW 900; first compound 0.8 µM
  relative viability: 0.487
SW 900; first compound 2.53 µM
  relative viability: 0.564

## COc1nc(C)cnc1NS(=O)(=O)c1cccnc1-c1ccc(-c2nnco2)cc1 [Zibotentan] + Cc1cc(Nc2cc(N3CCN(C)CC3)nc(Sc3ccc(NC(=O)C4CC4)cc3)n2)n[nH]1 [Tozasertib] (partner 0.1 µM)
201T; first compound 0.08 µM
  relative viability: 1.07
201T; first compound 0.253 µM
  relative viability: 0.881
201T; first compound 0.8 µM
  relative viability: 0.955
201T; first compound 2.53 µM
  relative viability: 1.04
ABC-1; first compound 0.08 µM
  relative viability: 0.175
ABC-1; first compound 0.253 µM
  relative viability: 0.163
ABC-1; first compound 0.8 µM
  relative viability: 0.193
ABC-1; first compound 2.53 µM
  relative viability: 0.201
BEN; first compound 0.08 µM
  relative viability: 0.542
BEN; first compound 0.253 µM
  relative viability: 0.426
BEN; first compound 0.8 µM
  relative viability: 0.473
BEN; first compound 2.53 µM
  relative viability: 0.642
CAL-12T; first compound 0.08 µM
  relative viability: 0.268
CAL-12T; first compound 0.253 µM
  relative viability: 0.289
CAL-12T; first compound 0.8 µM
  relative viability: 0.351
CAL-12T; first compound 2.53 µM
  relative viability: 0.31
COR-L 105; first compound 0.08 µM
  relative viability: 0.309
COR-L 105; first compound 0.253 µM
  relative viability: 0.344
COR-L 105; first compound 0.8 µM
  relative viability: 0.371
COR-L 105; first compound 2.53 µM
  relative viability: 0.362
EKVX; first compound 0.08 µM
  relative viability: 0.414
EKVX; first compound 0.253 µM
  relative viability: 0.348
EKVX; first compound 0.8 µM
  relative viability: 0.365
EKVX; first compound 2.53 µM
  relative viability: 0.428
HARA; first compound 0.08 µM
  relative viability: 0.0875
HARA; first compound 0.253 µM
  relative viability: 0.102
HARA; first compound 0.8 µM
  relative viability: 0.13
HARA; first compound 2.53 µM
  relative viability: 0.28
HCC-366; first compound 0.08 µM
  relative viability: 0.132
HCC-366; first compound 0.253 µM
  relative viability: 0.0914
HCC-366; first compound 0.8 µM
  relative viability: 0.0627
HCC-366; first compound 2.53 µM
  relative viability: 0.156
LK-2; first compound 0.08 µM
  relative viability: 0.148
LK-2; first compound 0.253 µM
  relative viability: 0.191
LK-2; first compound 0.8 µM
  relative viability: 0.166
LK-2; first compound 2.53 µM
  relative viability: 0.198
LOU-NH91; first compound 0.08 µM
  relative viability: 0.729
LOU-NH91; first compound 0.253 µM
  relative viability: 0.586
LOU-NH91; first compound 0.8 µM
  relative viability: 0.722
LOU-NH91; first compound 2.53 µM
  relative viability: 0.669
NCI-H1437; first compound 0.08 µM
  relative viability: 0.421
NCI-H1437; first compound 0.253 µM
  relative viability: 0.378
NCI-H1437; first compound 0.8 µM
  relative viability: 0.38
NCI-H1437; first compound 2.53 µM
  relative viability: 0.448
NCI-H1650; first compound 0.08 µM
  relative viability: 0.491
NCI-H1650; first compound 0.8 µM
  relative viability: 0.487
NCI-H1650; first compound 2.53 µM
  relative viability: 0.418
NCI-H1666; first compound 0.08 µM
  relative viability: 0.582
NCI-H1666; first compound 0.253 µM
  relative viability: 0.593
NCI-H1666; first compound 0.8 µM
  relative viability: 0.784
NCI-H1666; first compound 2.53 µM
  relative viability: 0.646
NCI-H2009; first compound 0.08 µM
  relative viability: 0.769
NCI-H2009; first compound 0.253 µM
  relative viability: 0.72
NCI-H2009; first compound 0.8 µM
  relative viability: 0.778
NCI-H2009; first compound 2.53 µM
  relative viability: 0.756
NCI-H2170; first compound 0.08 µM
  relative viability: 0.789
NCI-H2170; first compound 0.253 µM
  relative viability: 0.693
NCI-H2170; first compound 0.8 µM
  relative viability: 0.809
NCI-H2170; first compound 2.53 µM
  relative viability: 0.741
NCI-H3122; first compound 0.08 µM
  relative viability: 0.399
NCI-H3122; first compound 0.8 µM
  relative viability: 0.361
NCI-H3122; first compound 2.53 µM
  relative viability: 0.413
NCI-H441; first compound 0.08 µM
  relative viability: 0.633
NCI-H441; first compound 0.253 µM
  relative viability: 0.545
NCI-H441; first compound 0.8 µM
  relative viability: 0.728
NCI-H441; first compound 2.53 µM
  relative viability: 0.592
NCI-H460; first compound 0.08 µM
  relative viability: 0.625
NCI-H460; first compound 0.253 µM
  relative viability: 0.158
NCI-H460; first compound 0.8 µM
  relative viability: 0.106
NCI-H460; first compound 2.53 µM
  relative viability: 0.385
NCI-H661; first compound 0.08 µM
  relative viability: 0.369
NCI-H661; first compound 0.253 µM
  relative viability: 0.334
NCI-H661; first compound 0.8 µM
  relative viability: 0.347
NCI-H661; first compound 2.53 µM
  relative viability: 0.364
NCI-H727; first compound 0.08 µM
  relative viability: 0.692
NCI-H727; first compound 0.253 µM
  relative viability: 0.624
NCI-H727; first compound 0.8 µM
  relative viability: 0.629
NCI-H727; first compound 2.53 µM
  relative viability: 0.648
PC-14; first compound 0.08 µM
  relative viability: 0.555
PC-14; first compound 0.253 µM
  relative viability: 0.527
PC-14; first compound 0.8 µM
  relative viability: 0.583
PC-14; first compound 2.53 µM
  relative viability: 0.567
SW 900; first compound 0.08 µM
  relative viability: 0.553
SW 900; first compound 0.253 µM
  relative viability: 0.549
SW 900; first compound 0.8 µM
  relative viability: 0.617
SW 900; first compound 2.53 µM
  relative viability: 0.586
